Laboratory results published in ChEMBL document CHEMBL2010759, “Scabronine M, a novel inhibitor of NGF-induced neurite outgrowth from PC12 cells from the fungus Sarcodon scabrosus” (Bioorg Med Chem Lett, 2012).
The source made the active and inactive calls. The rule behind the calls is not given here.

What was measured:
PC-12 [1] = test: Inhibition of NGF-mediated neurite outgrowth in rat PC12 cells after 24 hrs by light microscopy; format: functional, cell-based
PC-12 [2] = test: Increase of NGF-mediated neurite outgrowth in rat PC12 cells at 1 uM after 24 hrs by light microscopy (reference value: 21.06 +/- 1.27 %); format: functional
PC-12 [3] = test: Inhibition of NGF-mediated neurite outgrowth in rat PC12 cells at 10 uM after 24 hrs by light microscopy (reference value: 21.06 +/- 1.27 %); format: functional; settings: PC-12, 24 h
PC-12 [4] = test: Inhibition of NGF-mediated neurite outgrowth in rat PC12 cells at 50 uM after 24 hrs by light microscopy (reference value: 21.06 +/- 1.27 %); format: functional; settings: PC-12, 24 h
PC-12 [5] = test: Inhibition of NGF-mediated neurite outgrowth in rat PC12 cells at 100 uM after 24 hrs by light microscopy (reference value: 21.06 +/- 1.27 %); format: functional; settings: PC-12, 24 h
PC-12 [6] = test: Increase of NGF-induced neuronal differentiation in rat PC12 cells up to 100 uM after 24 hrs by light microscopy; format: functional, cell-based
PC-12 [7] = test: Cytotoxicity against rat PC12 cells at 100 uM after 2 days by MTT assay; format: cell-based; settings: pc-12, 48 h
[8] = biological target: T1, Mitogen-activated protein kinase 1 and 3 (ERK2 and ERK1) (Rattus norvegicus) (UniProt P63086+P21708); test: Inhibition of NGF-induced ERK1/2 phosphorylation in rat PC12 cells at 1 uM after 15 mins by Western blotting analysis relative to beta-actin level (reference value: 0.275 +/- 0.005); format: cell-based; settings: PC-12
[9] = biological target: T1, Mitogen-activated protein kinase 1 and 3 (ERK2 and ERK1) (Rattus norvegicus); test: Inhibition of NGF-induced ERK1/2 phosphorylation in rat PC12 cells at 10 uM after 15 mins by Western blotting analysis relative to beta-actin level (reference value: 0.275 +/- 0.005); format: cell-based; settings: PC-12
[10] = biological target: T1, Mitogen-activated protein kinase 1 and 3 (ERK2 and ERK1) (Rattus norvegicus); test: Inhibition of NGF-induced ERK1/2 phosphorylation in rat PC12 cells at 50 uM after 15 mins by Western blotting analysis relative to beta-actin level (reference value: 0.275 +/- 0.005); format: cell-based; settings: PC-12
[11] = biological target: T1, Mitogen-activated protein kinase 1 and 3 (ERK2 and ERK1) (Rattus norvegicus); test: Inhibition of NGF-induced ERK1/2 phosphorylation in rat PC12 cells after 15 mins by Western blotting analysis relative to beta-actin level; format: cell-based; settings: PC-12
[12] = biological target: High affinity nerve growth factor receptor (Rattus norvegicus) (UniProt P35739); test: Inhibition of NGF-induced TrkA receptor phosphorylation in rat PC12 cells at 1 uM after 15 mins by ELISA relative to control; format: cell-based; settings: PC-12
[13] = biological target: High affinity nerve growth factor receptor (Rattus norvegicus) (UniProt P35739); test: Inhibition of NGF-induced TrkA receptor phosphorylation in rat PC12 cells at 10 uM after 15 mins by ELISA relative to control; format: cell-based; settings: PC-12
[14] = biological target: High affinity nerve growth factor receptor (Rattus norvegicus) (UniProt P35739); test: Inhibition of NGF-induced TrkA receptor phosphorylation in rat PC12 cells at 50 uM after 15 mins by ELISA relative to control; format: cell-based; settings: PC-12
[15] = biological target: High affinity nerve growth factor receptor (Rattus norvegicus) (UniProt P35739); test: Inhibition of NGF-induced TrkA receptor phosphorylation in rat PC12 cells after 15 mins by ELISA relative to control; format: cell-based; settings: PC-12
PC-12 [16] = test: Increase of NGF-mediated neurite outgrowth in rat PC12 cells after 24 hrs by light microscopy; format: functional, cell-based

Chain of High affinity nerve growth factor receptor (Rattus norvegicus) (P35739 whole entry): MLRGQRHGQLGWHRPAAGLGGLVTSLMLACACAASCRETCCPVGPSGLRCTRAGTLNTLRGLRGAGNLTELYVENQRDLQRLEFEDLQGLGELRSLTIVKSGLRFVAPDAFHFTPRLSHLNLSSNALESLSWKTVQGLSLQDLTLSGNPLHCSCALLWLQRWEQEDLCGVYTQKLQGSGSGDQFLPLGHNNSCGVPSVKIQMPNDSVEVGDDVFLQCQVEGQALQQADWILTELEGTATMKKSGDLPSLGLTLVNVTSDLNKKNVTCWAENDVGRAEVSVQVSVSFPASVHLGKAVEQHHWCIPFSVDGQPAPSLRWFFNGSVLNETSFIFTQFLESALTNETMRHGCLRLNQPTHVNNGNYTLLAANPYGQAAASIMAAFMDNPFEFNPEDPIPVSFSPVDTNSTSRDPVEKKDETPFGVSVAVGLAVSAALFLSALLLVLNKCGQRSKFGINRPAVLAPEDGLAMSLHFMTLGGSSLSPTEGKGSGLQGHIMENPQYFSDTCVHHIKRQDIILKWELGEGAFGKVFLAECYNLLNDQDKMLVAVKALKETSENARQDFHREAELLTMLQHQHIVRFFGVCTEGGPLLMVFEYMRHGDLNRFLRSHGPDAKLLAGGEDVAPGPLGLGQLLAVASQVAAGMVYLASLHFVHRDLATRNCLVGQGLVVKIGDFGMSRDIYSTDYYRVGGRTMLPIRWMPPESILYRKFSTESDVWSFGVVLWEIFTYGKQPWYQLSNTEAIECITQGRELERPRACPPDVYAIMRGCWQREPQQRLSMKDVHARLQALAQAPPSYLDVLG
T1 sequence (P21708 whole entry, looked up): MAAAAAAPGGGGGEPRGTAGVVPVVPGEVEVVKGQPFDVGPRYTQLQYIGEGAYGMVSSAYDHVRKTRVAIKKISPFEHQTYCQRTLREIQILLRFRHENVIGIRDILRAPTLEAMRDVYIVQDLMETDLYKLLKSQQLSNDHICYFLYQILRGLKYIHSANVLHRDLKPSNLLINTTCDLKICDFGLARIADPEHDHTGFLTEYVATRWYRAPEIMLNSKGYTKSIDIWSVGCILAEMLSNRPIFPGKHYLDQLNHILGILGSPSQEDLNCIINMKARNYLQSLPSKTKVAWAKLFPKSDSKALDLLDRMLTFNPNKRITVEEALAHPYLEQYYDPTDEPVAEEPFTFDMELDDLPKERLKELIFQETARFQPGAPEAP
T1 sequence (P63086 whole entry, looked up): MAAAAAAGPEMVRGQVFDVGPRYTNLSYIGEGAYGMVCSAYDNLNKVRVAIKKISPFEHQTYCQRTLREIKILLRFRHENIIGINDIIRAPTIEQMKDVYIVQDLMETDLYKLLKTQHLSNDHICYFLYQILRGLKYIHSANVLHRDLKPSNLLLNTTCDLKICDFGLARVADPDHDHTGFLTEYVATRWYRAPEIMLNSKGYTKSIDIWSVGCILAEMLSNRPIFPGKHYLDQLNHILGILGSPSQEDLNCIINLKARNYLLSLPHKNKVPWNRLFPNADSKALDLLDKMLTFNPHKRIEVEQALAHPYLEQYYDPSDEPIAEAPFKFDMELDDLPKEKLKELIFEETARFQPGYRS

CC(C)[C@@H](C)/C=C/[C@@H](C)[C@H]1CC[C@H]2C3=CC[C@H]4C[C@@H](O)CC[C@]4(C)[C@H]3CC[C@]12C
inhibition (PC-12 [1]): inactive

C[C@H](CO)C1=C2C3=CC=C(C=O)C[C@H](O)[C@]3(C)CC[C@@]2(CO)CC1
inhibition (PC-12 [1]): inactive

C[C@H](CO)[C@]12CC[C@]3(C)CC[C@@]4(C)C(=O)CC(C=O)=CC[C@@H]4[C@@]31O2 (relative stereo) [SCABRONINE M]
inhibition (PC-12 [1]): Dose-dependent effect
Activity (PC-12 [2]): 23.22%
neurite-bearing cells at 10 µM (PC-12 [3]): 9.15%
neurite-bearing cells at 50 µM (PC-12 [4]): 1.6%
neurite-bearing cells at 100 µM (PC-12 [5]): 0.1%
Activity (PC-12 [6]): inactive
Activity (PC-12 [7]): Non-toxic
Ratio [8]: 0.26
Ratio [9]: 0.24
Ratio [10]: 0.21
inhibition [11]: Dose-dependent effect
fold change (FC) [12]: 1.61
fold change (FC) [13]: 1.4
fold change (FC) [14]: 1.34
inhibition [15]: Dose-dependent effect

CC(C)[C@@H](C)/C=C/[C@@H](C)[C@H]1CC[C@H]2C3=C[C@@H](O)[C@@]4(O)C[C@@H](O[C@@H]5O[C@H](CO)[C@@H](O)[C@H](O)[C@H]5O)CC[C@]4(C)[C@H]3CC[C@]12C
inhibition (PC-12 [1]): inactive

CC(C)[C@@H](C)/C=C/[C@@H](C)[C@H]1CC[C@@H]2[C@]1(C)CC[C@H]1[C@]23C=C[C@]2(C[C@@H](O)CC[C@]12C)OO3
inhibition (PC-12 [1]): inactive

CC(C)[C@@H](C)/C=C/[C@@H](C)[C@H]1CC[C@H]2C3=CC=C4C[C@@H](O)CC[C@]4(C)[C@H]3CC[C@]12C
inhibition (PC-12 [1]): inactive

CC(C)[C@@H](C)/C=C/[C@@H](C)[C@H]1CC[C@H]2C3=CC(=O)[C@@]4(O)C[C@@H](O)CC[C@]4(C)[C@@]3(O)CC[C@]12C
inhibition (PC-12 [1]): inactive

CC(C)[C@@H](C)/C=C/[C@@H](C)[C@H]1CC[C@H]2C3=C[C@@H](O)[C@@]4(O)C[C@@H](O)CC[C@]4(C)[C@H]3CC[C@]12C
inhibition (PC-12 [1]): inactive

CCCCCCCCCCCCCCC[C@@H](O)C(=O)N[C@@H](CO[C@@H]1O[C@H](CO)[C@@H](O)[C@H](O)[C@H]1O)[C@H](O)/C=C/CC/C=C(\C)CCCCCCCCC
inhibition (PC-12 [1]): inactive

CC(C)[C@@H](C)/C=C/[C@@H](C)[C@H]1CC[C@@H]2[C@]1(C)CC[C@H]1[C@]23C=C[C@]2(C[C@@H](O[C@@H]4O[C@H](CO)[C@@H](O)[C@H](O)[C@H]4O)CC[C@]12C)OO3
inhibition (PC-12 [1]): inactive

C[C@H](CO)C1=C2[C@H]3CC=C(C=O)CC(=O)[C@]3(C)CC[C@@]2(C)CC1
inhibition (PC-12 [1]): Active
Activity (PC-12 [16]): Active

CO[C@@H]1C=C2[C@@H]3CC[C@H]([C@H](C)/C=C/[C@H](C)C(C)C)[C@@]3(C)CC[C@]2(O)[C@@]2(C)CC[C@H](O)C[C@]12O
inhibition (PC-12 [1]): inactive
